This is an account of results in PubChem BioAssay (NCI).

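Growth conditions: 96-well plates. Treatment: test compound, 48 hours, 5 concentrations. Analysis: linear interpolation between bracketing concentrations; unreached endpoints set to highest concentration. The concentration for 50% growth inhibition is given as GI50. Definition used: TGI = concentration required for complete inhibition of growth.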 *1 amine or outer side, *2 acyl side, *3 side chain or, on linkers, in order; H or OH if unused. Where a SMILES comes first, the peptide text is derived from it. Bridges are numbered along the chain shown (N, C = ends). Roman numbers before positions name the chains, in order. [ ]: non-standard residue; d: D form. Actinocin(9to1) = Cc1c2oc3c(C)ccc(C(=O)[*:1])c3nc-2c(C(=O)[*:2])c(N)c1=O; NMeF = CN[CH](Cc1ccccc1)C(=O)O; Sar = CNCC(=O)O

Among the test systems are MDA-N; HOP-18 NSCLC; DMS 273 small cell lung; KM20L2 colon; DMS 114 small cell lung; SNB-78 CNS; DLD-1 colon.
Common to all, as to assay: inhibition of tumour cell growth, NCI panel, 48 h

With `C=CC1=C(C)C2=NC1=CC1=NC(=C(CC)/C1=C\O)C=C1N=C3C(=C1C)C(=O)[C@H](C(=O)OC)C3=C1NC(=C2)[C@@H](C)[C@@H]1CCC(=O)O`, the TGI with MDA-N is > 100 µM.

In turn, `O=[N+]([O-])c1cccc2nccc(NCCCO)c12` returned a TGI with MDA-N of 22.2 µM.

Consider `Oc1c(CN2CCN(c3ccccc3)CC2)cc(Br)c2cccnc12`, for which the TGI in the assay on MDA-N is > 100 µM.

In the case of `C/C(=N\NC(=S)N(C)C)c1ccccn1`, the GI50 with MDA-N is 0.178 µM.

For `O=C(O)Cn1cc([N+](=O)[O-])c(=O)c2ccccc21`, the TGI with MDA-N is > 100 µM.

On to `CC(=C/c1ccccc1)/C=C1/NC(=S)N(/C=C2\C(=O)Oc3ccccc3C2=O)C1=O`, for which the TGI in the assay on MDA-N is > 100 µM.

In the case of `Cc1ccc([C@]2(C)CC[C@H](C)/C2=C\Br)c(O)c1`, in the assay on MDA-N, the GI50 is 2.74 µM and the TGI amounted to 10.3 µM.

With `NNC(=O)C(=O)N/N=C(\CCC(=O)Nc1ccc(Cl)cc1)Cc1nc2ccccc2s1`, the TGI with HOP-18 NSCLC is 38.7 µM; in the assay on DMS 273 small cell lung it was 67.8 µM; with KM20L2 colon, > 100 µM; in the assay on DMS 114 small cell lung it was 54.8 µM; in the assay with SNB-78 CNS, > 100 µM.

With `O=C(O)c1cc2ccccc2c2c1C(=O)c1ccccc1-2`, the TGI with MDA-N is > 100 µM.

With `Cc1c([N+](=O)[O-])oc2ccc3ccccc3c12`, the TGI with MDA-N is > 100 µM.

Turning to `O=C(O)C(Oc1nc(=S)[nH]c(=S)[nH]1)(c1ccc(Cl)cc1)c1ccc(Cl)cc1`, the TGI with MDA-N is > 100 µM.

`CC(C)=CCCC(C)C1=C(O)C(=O)C(C)=CC1=O` (centres undefined) returned a TGI in the assay on MDA-N of 21.7 µM.

`N.N.O=P([O-])([O-])C1(P(=O)([O-])[O-])CCCCCN1.[Pt+2]`: the GI50 is > 100 µM with HOP-18 NSCLC; > 100 µM in the assay with DLD-1 colon; > 100 µM in the assay on DMS 273 small cell lung; > 100 µM in the assay on KM20L2 colon; 78.4 µM in the assay on SNB-78 CNS. Besides, the TGI in the assay with HOP-18 NSCLC, in the assay on DLD-1 colon, with DMS 273 small cell lung, with KM20L2 colon and in the assay on SNB-78 CNS was > 100 µM in each case.

Turning to `Cc1coc2c1C(OC(=O)C(C)C)C1(C)C(C)CCC(O)C1C2=O` (centres undefined), in the assay on MDA-N, the TGI is > 100 µM.

In the case of `CCCCCCCCCCCCCCCCCC(=O)Nc1ccn(C2OC(CO)C(O)C2O)c(=O)n1` (centres undefined), the TGI in the assay on HOP-18 NSCLC, in the assay with DLD-1 colon, in the assay with DMS 273 small cell lung, in the assay on KM20L2 colon, in the assay on MDA-N and with SNB-78 CNS was > 100 µM throughout.

As to `CC(=O)[O-].O=C([CH-]C(=O)c1ccccc1)c1ccccc1.O=C([CH-]C(=O)c1ccccc1)c1ccccc1.[Sm+3]`, in the assay with KM20L2 colon, the GI50 is 7.33 µM and the TGI amounted to 36.5 µM.

As for `O=C(O)/C(=C\c1ccncc1)c1cccc2ccccc12`, the TGI in the assay on MDA-N was > 100 µM.

Take `CC(=O)[CH-]C(C)=O.CC(=O)[CH-]C(C)=O.CC[O-].CC[O-].[Ti+4]`: the GI50 in the assay on DLD-1 colon and in the assay with DMS 114 small cell lung was > 100 µM each time. Also, the TGI in the assay with DLD-1 colon and with DMS 114 small cell lung was > 100 µM in each case.

As for `CC(=O)N/C(=C\c1ccc(Cc2nc3c([nH]2)C(=O)c2ccccc2C3=O)cc1)c1nc2c([nH]1)C(=O)c1ccccc1C2=O`, the TGI in the assay on DLD-1 colon, in the assay on KM20L2 colon and with DMS 114 small cell lung was > 100 µM throughout.

Consider `COc1ccccc1C(=O)N(C)c1ccc(Cl)c(C(=O)OC(C)C)c1`, for which the TGI with MDA-N is > 100 µM.

Turning to `O=C(CC/C(CC(=O)c1ccc(Br)cc1)=N\O)Nc1ccc(Cl)c(Cl)c1`, the TGI in the assay on HOP-18 NSCLC, with DLD-1 colon, in the assay on DMS 273 small cell lung, in the assay with KM20L2 colon, in the assay on DMS 114 small cell lung and in the assay on SNB-78 CNS was > 100 µM each time.

Consider `Cc1c2oc3c(C)ccc(C(=O)NC4C(=O)NC(C(C)C)C(=O)N5CCCC5C(=O)N(C)CC(=O)N(C)C(Cc5ccccc5)C(=O)OC4C)c3nc-2c(C(=O)NC2C(=O)NC(C(C)C)C(=O)N3CCCC3C(=O)N(C)CC(=O)N(C)C(Cc3ccccc3)C(=O)OC2C)c(N)c1=O` (centres undefined) (I: TVP[Sar][NMeF] / II: TVP[Sar][NMeF]; ester I:1-I:C, II:1-II:C; linker I:N-II:N via Actinocin(9to1); configuration not given here), for which, in the assay on MDA-N, the GI50 is 0.00491 µM and the TGI came out at 0.0564 µM.

For the molecule `CC(=O)[CH-]C(=O)c1ccccc1.CC(=O)[CH-]C(=O)c1ccccc1.CC[O-].O=C1c2ccccc2C(=O)c2c1ccc(O)c2[O-].[Ti+4]`, the GI50 in the assay with HOP-18 NSCLC was 23.1 µM; in the assay with KM20L2 colon it was 80.5 µM. For the same molecule, the TGI in the assay with HOP-18 NSCLC was 88.3 µM; in the assay with DLD-1 colon, > 100 µM; in the assay with DMS 273 small cell lung, > 100 µM; in the assay with KM20L2 colon it was > 100 µM.
